Laboratory results as given in patent US5145783A, “Glyphosate-tolerant 5-endolpyruvyl-3-phosphoshikimate synthase” (Monsanto Company, priority 1990, dated 1992).
Entries after “also recorded” stand apart in the source; their conditions may differ.

What was measured:
[1] = biological target: T1, Arabidopsis EPSP synthase with the alanine for glycine substitution at position 101 (Arabidopsis thaliana, UniProt P05466, G177A); experiment: EPSP synthase activity in protein extracts of Brassica napus calli transformed with pMON600; type: biochemical
T1 construct: the expressed Arabidopsis EPSP synthase would include the alanine for glycine substitution at position 101 of the mature enzyme; expressed in transfected cells; host or cells: Brassica napus calli transformed by Agrobacterium harboring pMON600, protein extract
T1 sequence (P05466 77-520 G177A): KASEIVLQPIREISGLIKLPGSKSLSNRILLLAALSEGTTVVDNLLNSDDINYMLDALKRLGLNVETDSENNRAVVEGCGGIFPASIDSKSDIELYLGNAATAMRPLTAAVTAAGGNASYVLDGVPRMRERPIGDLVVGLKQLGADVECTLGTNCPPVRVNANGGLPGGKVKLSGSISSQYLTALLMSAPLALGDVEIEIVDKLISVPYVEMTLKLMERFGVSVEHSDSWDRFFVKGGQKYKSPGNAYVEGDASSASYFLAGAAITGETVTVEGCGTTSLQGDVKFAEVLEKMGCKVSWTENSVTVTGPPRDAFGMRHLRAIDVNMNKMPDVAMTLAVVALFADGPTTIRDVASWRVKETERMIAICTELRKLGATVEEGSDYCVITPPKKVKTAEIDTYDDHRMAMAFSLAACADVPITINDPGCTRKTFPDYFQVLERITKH
Description: The Agrobacterium harboring the pMON600 plasmid was used to transform explants of Brassica napus. Three gentamicin resistant calli were obtained. […] Proteins were extracted from samples of the calli and were assayed for EPSP synthase activity. All three of the calli contained EPSP synthase activity that was resistant to 0.5 mM glyphosate.
The EPSP synthase in the extracts was further characterized by titrating the resistance to glyphosate.

[2] = test system: petunia leaf disks transformed with CaMV35S/EPSP synthase gene (pMON546); experiment: Callus growth of petunia leaf disks on glyphosate media, transformed with pMON546; type: cell-based
Description: Leaf disks with diameters of 6 mm (1/4 inch) were taken from surface-sterilized petunia leaves. They were cultivated on MS104 agar medium for 2 days to promote partial cell wall formation at the wound surfaces. They were then submerged in a culture of A. tumefaciens cells containing both pMON546 and GV3111-SE which had been grown overnight in Luria broth at 28° C., and shaken gently. The cells were removed from the bacterial suspension, blotted dry, and incubated upside down on filter paper placed over "nurse" cultures of tobacco cells, as described in Horsch (1980). After 2 or 3 days, the disks were transferred to petri dishes containing MS media with 500 μg/ml carbenicillin and 0., 0.1, 0.25, or 0.5 mM glyphosate (sodium salt), with no nurse cultures.
Control tissue was created using A. tumefaciens cells containing the helper plasmid pGV3111-SE and a different plant transformation vector, pMON505, which contained a T-DNA region with a NOS/NPTII/NOS kanamycin resistance gene and a NOS selectable marker gene identical to pMON546, but without the CaMV35S/EPSP synthase gene.
Within 10 days after transfer to the media containing glyphosate, actively growing callus tissue appeared on the periphery of all disks on the control plate containing no glyphosate. […] This confirms that the CaMV35S/EPSP synthase gene conferred glyphosate resistance upon the transformed cells.

[3] = test system: wild-type (non-transformed) petunia plants; experiment: Plant response to glyphosate spraying, control plants; type: in vivo; conditions: 0.8 #/acre acid equivalent, isopropylamine salt sprayed
Description: (§1) Four individual representative transgenic seedlings were selected, grown and tested in the testing procedure described below, along with four individual non-transformed (wild-type) petunia seedlings.
(§2) The plants were grown in a growth medium in a growth chamber at 26° C. with 12 hours of light per day. The plants were fertilized weekly with a soluble fertilizer and watered as needed. The plants were sprayed at a uniform and reproducible delivery rate of herbicide by use of an automated track sprayer. The glyphosate solution used was measured as pounds of glyphosate acid equivalents per acre, mixed as the glyphosate isopropylamine salt, with an ionic surfactant.
(§3) Four individual wild-type (non-transformed) petunia plants were selected for use as control plants. Four individual transformed plants containing the pMON546 vector were selected by kanamycin resistance as described in Horsch et al. (1985).
(§4) The control plants and the transformed plants were sprayed with the isopropylamine salt of glyphosate at the application level listed in Table 2 below; the experimental results obtained are also summarized in Table 2.

[4] = test system: petunia plants transformed with chimeric EPSP synthase gene (pMON546); experiment: Plant response to glyphosate spraying, transformed plants; type: in vivo; conditions: 0.8 #/acre acid equivalent, isopropylamine salt sprayed
Description: as §1, §2, §3, §4

[5] = test system: tobacco plants transformed with glyphosate-tolerant petunia EPSP synthase gene (pMON567); experiment: Relative effect of glyphosate spray on transformed tobacco, glyphosate-tolerant gene; type: in vivo, Nicotiana tabacam CV H425; set-up: key: 0 = total kill, 10 = normal unsprayed plant; conditions: GT
From the text: (§5) A culture of A. tumefaciens cells containing pMON567/pGV3111-SE was contacted with leaf disks taken from tobacco plants (Nicotiana tabacam CV H425) as described by Horsch (1985). The Agrobacterium cells inserted the mutant EPSP synthase gene into the chromosomes of the plant cells. Plant cells resistant to kanamycin were selected and regenerated into differentiated plants by the procedure of Horsch (1985).
Progeny of these plants were propagated and grown to a rosette diameter of about 10 cm corresponding to a plant age of about four weeks. […] […] The effect was translated to a numerical scale of 0-10 in which 0 represents total kill and 10 is the normal, unsprayed plant. […] The values represent the best transformant for both wild-type EPSP synthase and glyphosate-tolerant EPSP synthase genes.

[6] = test system: tobacco plants transformed with wild-type EPSP synthase gene; experiment: Relative effect of glyphosate spray on transformed tobacco, wild-type gene; type: in vivo, Nicotiana tabacam CV H425; set-up: key: 0 = total kill, 10 = normal unsprayed plant; conditions: WT
From the text: as §5
Progeny of these plants were propagated and grown to a rosette diameter of about 10 cm corresponding to a plant age of about four weeks. The plants were sprayed with glyphosate at levels corresponding to 2.0 and 3.6 pounds acid equiv./acre. […] The effect was translated to a numerical scale of 0-10 in which 0 represents total kill and 10 is the normal, unsprayed plant. […] The values represent the best transformant for both wild-type EPSP synthase and glyphosate-tolerant EPSP synthase genes.

[7] = 0.4 Pounds/Acre, Day 7, best transformant
[8] = 0.4 Pounds/Acre, Day 14, best transformant
[9] = 0.4 Pounds/Acre, Day 28, best transformant
[10] = 2.0 Pounds/Acre, Day 7, best transformant
[11] = 2.0 Pounds/Acre, Day 14, best transformant
[12] = 2.0 Pounds/Acre, Day 28, best transformant
[13] = 3.6 Pounds/Acre, Day 7, best transformant
[14] = 3.6 Pounds/Acre, Day 14, best transformant
[15] = 3.6 Pounds/Acre, Day 28, best transformant

O=C(O)CNCP(=O)(O)O [glyphosate, N-phosphonomethylglycine]
IC50 [1]: 7.5 mM | EPSP synthase activity in the presence of glyphosate ([1]; 0.5 mM glyphosate, all three calli): resistant | callus growth, control disks versus transformed tissue ([2]; 0.1 mM glyphosate, within 10 days after transfer): little detectable difference | callus growth ([2]; 0.25 mM glyphosate, transformed tissue): substantial growth | callus growth ([2]; 0.5 mM glyphosate, transformed disks): a significant number of calli grew | Visual Appearance [3]: completely dead; also recorded: killed | Visual Appearance [4]: growing well; also recorded: healthy and viable | Relative effect of glyphosate (0 total kill, 10 no effect) [5, 7]: 8.0 | Relative effect of glyphosate (0 total kill, 10 no effect) [5, 8]: 8.0 | Relative effect of glyphosate (0 total kill, 10 no effect) [5, 9]: 9.0 | Relative effect of glyphosate (0 total kill, 10 no effect) [5, 10]: 8.0 | Relative effect of glyphosate (0 total kill, 10 no effect) [5, 11]: 8.3 | Relative effect of glyphosate (0 total kill, 10 no effect) [5, 12]: 7.0 | Relative effect of glyphosate (0 total kill, 10 no effect) [5, 13]: 5.0 | Relative effect of glyphosate (0 total kill, 10 no effect) [5, 14]: 7.4 | Relative effect of glyphosate (0 total kill, 10 no effect) [5, 15]: 7.0 | Relative effect of glyphosate (0 total kill, 10 no effect) [6, 7]: 6.0 | Relative effect of glyphosate (0 total kill, 10 no effect) [6, 8]: 7.0 | Relative effect of glyphosate (0 total kill, 10 no effect) [6, 9]: 9.0 | Relative effect of glyphosate (0 total kill, 10 no effect) [6, 10]: 5.0 | Relative effect of glyphosate (0 total kill, 10 no effect) [6, 11]: 1.8 | Relative effect of glyphosate (0 total kill, 10 no effect) [6, 12]: 0.8 | Relative effect of glyphosate (0 total kill, 10 no effect) [6, 13]: 5.0 | Relative effect of glyphosate (0 total kill, 10 no effect) [6, 14]: 1.7 | Relative effect of glyphosate (0 total kill, 10 no effect) [6, 15]: 0.8
